From PubChem BioAssay (NCI)
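Following 48 hours of exposure in 96-well plates, responses at five concentrations were used to interpolate endpoints linearly. GI50 = concentration required for 50% inhibition of growth. At the TGI there is no net growth.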 *1 amine or outer side, *2 acyl side, *3 side chain or, on linkers, in order; H or OH if unused. Where a SMILES comes first, the peptide text is derived from it. Bridges are numbered along the chain shown (N, C = ends). Roman numbers before positions name the chains, in order. [ ]: non-standard residue; d: D form. ξ: configuration not given here. Actinocin(1to9) = Cc1c2oc3c(C)ccc(C(=O)[*:2])c3nc-2c(C(=O)[*:1])c(N)c1=O; Pro(4-oxo) = O=C1CN[C@H](C(=O)O)C1; Thr(3ξ) = CC(O)[C@H](N)C(=O)O; NMeV = CN[C@H](C(=O)O)C(C)C; Sar = CNCC(=O)O

Assays:
Assay in all cases: NCI anticancer screen, dose series, 48 h
HOP-62 NSCLC = system: HOP-62 NSCLC
SF-539 CNS = system: SF-539 CNS
NCI-H522 lung = system: NCI-H522 lung
SNB-19 CNS = system: SNB-19 CNS
OVCAR-3 ovarian = system: OVCAR-3 ovarian
M14 melanoma = system: M14 melanoma
SK-MEL-5 melanoma = system: SK-MEL-5 melanoma
SNB-75 CNS = system: SNB-75 CNS
MALME-3M melanoma = system: MALME-3M melanoma
NCI-H460 lung = system: NCI-H460 lung
IGROV1 ovarian = system: IGROV1 ovarian
NCI/ADR-RES ovarian = system: NCI/ADR-RES ovarian
HCT-15 colon = system: HCT-15 colon
A498 renal = system: A498 renal
OVCAR-4 ovarian = system: OVCAR-4 ovarian
SF-295 CNS = system: SF-295 CNS
HCC-2998 colon = system: HCC-2998 colon
SW-620 colon = system: SW-620 colon
BT-549 breast = system: BT-549 breast
SK-MEL-2 melanoma = system: SK-MEL-2 melanoma
COLO 205 colon = system: COLO 205 colon
OVCAR-8 ovarian = system: OVCAR-8 ovarian
K-562 leukemia = system: K-562 leukemia
MDA-MB-231 breast = system: MDA-MB-231 breast
SN12C renal = system: SN12C renal
786-0 renal = system: 786-0 renal
EKVX NSCLC = system: EKVX NSCLC
HL-60(TB) leukemia = system: HL-60(TB) leukemia
PC-3 prostate = system: PC-3 prostate
MDA-MB-468 breast = system: MDA-MB-468 breast
SF-268 CNS = system: SF-268 CNS
OVCAR-5 ovarian = system: OVCAR-5 ovarian
HS 578T breast = system: HS 578T breast
RPMI-8226 leukemia = system: RPMI-8226 leukemia
SK-MEL-28 melanoma = system: SK-MEL-28 melanoma
RXF 393 renal = system: RXF 393 renal
HOP-92 NSCLC = system: HOP-92 NSCLC
KM12 colon = system: KM12 colon
UACC-62 melanoma = system: UACC-62 melanoma
T-47D breast = system: T-47D breast
DU-145 prostate = system: DU-145 prostate
SR leukemia = system: SR leukemia
TK-10 renal = system: TK-10 renal
U251 CNS = system: U251 CNS
SK-OV-3 ovarian = system: SK-OV-3 ovarian
MOLT-4 leukemia = system: MOLT-4 leukemia
CCRF-CEM leukemia = system: CCRF-CEM leukemia
MDA-MB-435 = system: MDA-MB-435
NCI-H23 lung = system: NCI-H23 lung

## Cc1c2oc3c(C)ccc(C(=O)N[C@@H]4C(=O)N[C@H](C(C)C)C(=O)N5CCC[C@H]5C(=O)N(C)CC(=O)N(C)[C@@H](C(C)C)C(=O)OC4C)c3nc-2c(C(=O)N[C@@H]2C(=O)N[C@H](C(C)C)C(=O)N3CC(=O)C[C@H]3C(=O)N(C)CC(=O)N(C)[C@@H](C(C)C)C(=O)OC2C)c(N)c1=O (stereo partly drawn) (I: [Thr(3ξ)][dV][Pro(4-oxo)][Sar][NMeV] / II: [Thr(3ξ)][dV]P[Sar][NMeV]; ester I:1-I:C, II:1-II:C; linker I:N-II:N via Actinocin(1to9))
HOP-62 NSCLC
  GI50: < 10 nM
  TGI: < 10 nM
SF-539 CNS
  GI50: < 10 nM
  TGI: < 10 nM
NCI-H522 lung
  GI50: < 10 nM
  TGI: < 10 nM
SNB-19 CNS
  GI50: < 10 nM
  TGI: 172 nM
OVCAR-3 ovarian
  GI50: < 10 nM
  TGI: 1980 nM
M14 melanoma
  GI50: < 10 nM
  TGI: < 21.5 nM
SK-MEL-5 melanoma
  GI50: < 10 nM
  TGI: < 10 nM
SNB-75 CNS
  GI50: < 10 nM
  TGI: < 10 nM
MALME-3M melanoma
  GI50: < 10 nM
  TGI: < 10 nM
NCI-H460 lung
  GI50: < 10 nM
  TGI: 10300 nM
IGROV1 ovarian
  GI50: < 10 nM
  TGI: 4590 nM
NCI/ADR-RES ovarian
  GI50: 52 nM
  TGI: 1060 nM
HCT-15 colon
  GI50: < 10 nM
  TGI: 10100 nM
A498 renal
  GI50: < 10 nM
  TGI: < 10 nM
OVCAR-4 ovarian
  GI50: < 10 nM
  TGI: 4600 nM
SF-295 CNS
  GI50: < 10 nM
  TGI: 92 nM
HCC-2998 colon
  GI50: < 10 nM
  TGI: < 11.4 nM
SW-620 colon
  GI50: < 10 nM
  TGI: 11300 nM
BT-549 breast
  GI50: < 10 nM
  TGI: < 10 nM
SK-MEL-2 melanoma
  GI50: < 10 nM
  TGI: < 10 nM
COLO 205 colon
  GI50: < 10 nM
  TGI: < 10 nM
OVCAR-8 ovarian
  GI50: < 10 nM
  TGI: 17700 nM
K-562 leukemia
  GI50: < 10 nM
  TGI: 163 nM
MDA-MB-231 breast
  GI50: < 10 nM
  TGI: 16.7 nM
SN12C renal
  GI50: < 10 nM
  TGI: 579 nM
786-0 renal
  GI50: < 10 nM
  TGI: 10300 nM
EKVX NSCLC
  GI50: < 10 nM
  TGI: < 33.2 nM
HL-60(TB) leukemia
  GI50: < 10 nM
  TGI: 48.3 nM
PC-3 prostate
  GI50: < 10 nM
  TGI: 294 nM
MDA-MB-468 breast
  GI50: < 10 nM
  TGI: < 10 nM
SF-268 CNS
  GI50: < 10 nM
  TGI: 1100 nM
OVCAR-5 ovarian
  GI50: < 10 nM
  TGI: 3200 nM
HS 578T breast
  GI50: < 10 nM
  TGI: 197 nM
RPMI-8226 leukemia
  GI50: < 10 nM
  TGI: 14.7 nM
SK-MEL-28 melanoma
  GI50: < 10 nM
  TGI: < 10 nM
RXF 393 renal
  GI50: < 10 nM
  TGI: < 10 nM
HOP-92 NSCLC
  GI50: < 10 nM
  TGI: < 10 nM
KM12 colon
  GI50: < 10 nM
  TGI: 6980 nM
UACC-62 melanoma
  GI50: < 10 nM
  TGI: < 10 nM
T-47D breast
  GI50: < 10 nM
  TGI: < 10 nM
DU-145 prostate
  GI50: < 10 nM
  TGI: 30300 nM
SR leukemia
  GI50: < 10 nM
  TGI: < 10.4 nM
TK-10 renal
  GI50: < 10 nM
  TGI: 6400 nM
U251 CNS
  GI50: < 10 nM
  TGI: 5750 nM
SK-OV-3 ovarian
  GI50: < 10 nM
  TGI: 490 nM
MOLT-4 leukemia
  GI50: < 10 nM
  TGI: 25.2 nM
CCRF-CEM leukemia
  GI50: < 10 nM
  TGI: 35.2 nM
MDA-MB-435
  GI50: < 10 nM
  TGI: < 10 nM
NCI-H23 lung
  GI50: < 10 nM
  TGI: < 10 nM
